Measured values published in article doi:10.1101/2024.12.16.628070v1 (bioRxiv, 2024).
Converted amounts (≈) assume the structure as drawn. Read-outs that look alike come from different tables or passages of the source.

Legend:
Escherichia coli = format: cell-based
Salmonella entereditis = test: MIC, broth microdilution; format: cell-based; details: strain ATCC 13076
Pseudomonas aeruginosa = test: MIC, broth microdilution; format: cell-based
Klebsiella pneumoniae = test: MIC, broth microdilution; format: cell-based
E. coli M6 = format: cell-based, Escherichia coli; details: after 5-7 days of passage
Acinetobacter baumannii = test: MIC, broth microdilution; format: cell-based
Shigella flexneri = test: MIC, broth microdilution; format: cell-based; details: strain M90T
Morganella morganii = test: MIC, broth microdilution; format: cell-based
Salmonella typhimurium = test: MIC, broth microdilution; format: cell-based; details: strain ATCC 14028
BAM complex = BAM complex (Escherichia coli, UniProt P0A940); test: Differential Scanning Fluorimetry of BAM complex in nanodiscs; format: binding; details: read-out: increase in melting temperature (Tm)
Bacillus cereus = test: MIC, broth microdilution; format: cell-based; details: strain ATCC 11778
Bacillus subtilis = test: MIC, broth microdilution; format: cell-based; details: strain ATCC 6633
Staphylococcus aureus = test: MIC, broth microdilution; format: cell-based
[1] = Single-dose pharmacokinetic study; format: in vivo; details: mouse, blood, ip, 50 mg/kg
Enterobacter cloacae = test: MIC, broth microdilution; format: cell-based
[2] = biological target: BamA-β (transmembrane β-barrel domain of BamA) (Escherichia coli, UniProt P0A940, C690S/C700S); test: Surface Plasmon Resonance affinity to BamA-β in LDAO micelles; format: binding

Molecule `CC(C)[C@@H]1NC(=O)[C@@H](N)Cc2c[nH]c3cc(ccc23)C(C(N)=O)[C@@H](C(=O)N[C@@H](C)C(=O)N[C@H]2Cc3cccc(c3)C(CCNC(=N)N)[C@@H](C(=O)N[C@H]3Cc4c[nH]c5cc(ccc45)C(CCCN)[C@@H](C(=O)N[C@@H](CO)C(=O)N[C@@H](Cc4ccccc4)C(=O)O)NC(=O)[C@H](CO)NC3=O)NC(=O)[C@H](C)NC2=O)NC1=O` (stereo partly shown) [Compound 2, xenorceptide A2] has an MIC (Escherichia coli; K12 MG1655 BamA F394V, E435K, G443D) of 8 µg/mL (≈ 5.36 µM), an MIC (Escherichia coli; K12 MG1655 BamA G429V, G807V) of 8 µg/mL (≈ 5.36 µM) and an MIC (Escherichia coli; MG1655 bamA G429C, generated in the present study) of 32 µg/mL (≈ 21.4 µM). It also gave an MIC (Escherichia coli; strain 1 (darobactin-resistant MG1655 strain previously reported)) of 8 µg/mL (≈ 5.36 µM), an MIC (Escherichia coli; strain 2 (darobactin-resistant MG1655 strain previously reported)) of 8 µg/mL (≈ 5.36 µM) and an MIC (Escherichia coli; strain ATCC 25922 (WT), broth microdilution, MHB, 18-20 h, 37 °C) of 2 µg/mL (≈ 1.34 µM). The MIC (Escherichia coli; strain CRE1006, broth microdilution, MHB, 18-20 h, 37 °C) was 4 µg/mL (≈ 2.68 µM), the MIC (Escherichia coli; strain K12 MG1655 (WT)) was 2 µg/mL (≈ 1.34 µM) and the MIC (Escherichia coli; strain M2, broth microdilution, MHB, 18-20 h, 37 °C, repeated three times) was 16 µg/mL (≈ 10.7 µM). For the same molecule, the MIC (Escherichia coli; strain M6, broth microdilution, MHB, 18-20 h, 37 °C) was 8 µg/mL (≈ 5.36 µM), the MIC (Escherichia coli; strain M10, broth microdilution, MHB, 18-20 h, 37 °C) was 4 µg/mL (≈ 2.68 µM) and the MIC (Escherichia coli; strain M11, broth microdilution, MHB, 18-20 h, 37 °C) was 4 µg/mL (≈ 2.68 µM). The MIC (Salmonella entereditis) was 8 µg/mL (≈ 5.36 µM), the MIC (Pseudomonas aeruginosa; strain ATCC 9027) was 64 µg/mL (≈ 42.9 µM) and the MIC (Pseudomonas aeruginosa; strain DM4150R) was 64 µg/mL (≈ 42.9 µM). For the same molecule, the MIC (Pseudomonas aeruginosa; strain DM23376) was over 64 µg/mL, the MIC (Pseudomonas aeruginosa; strain DR4877/07) was 64 µg/mL (≈ 42.9 µM) and the MIC (Pseudomonas aeruginosa; strain DR5790/07) was 64 µg/mL (≈ 42.9 µM). For the same molecule, the MIC (Klebsiella pneumoniae; strain ATCC 700603) was 8 µg/mL (≈ 5.36 µM), the MIC (Klebsiella pneumoniae; strain CRE1007) was 8 µg/mL (≈ 5.36 µM) and the MIC (Klebsiella pneumoniae; strain CRE1008) was 8 µg/mL (≈ 5.36 µM). It also gave an MIC (Klebsiella pneumoniae; strain CRE1011) of 8 µg/mL (≈ 5.36 µM), an MIC (Klebsiella pneumoniae; strain CRE1012) of 8 µg/mL (≈ 5.36 µM) and an MIC (Klebsiella pneumoniae; strain M7) of 64 µg/mL (≈ 42.9 µM). The “MIC after resistance development in serial passage” value (E. coli M6) was 32 µg/mL (≈ 21.4 µM), the MIC (Acinetobacter baumannii; strain ACBA1001) was 32 µg/mL (≈ 21.4 µM) and the MIC (Acinetobacter baumannii; strain ACBA1002) was 32 µg/mL (≈ 21.4 µM). It also gave an MIC (Acinetobacter baumannii; strain ACBA1003) of 32 µg/mL (≈ 21.4 µM), an MIC (Acinetobacter baumannii; strain ACBA1004) of 64 µg/mL (≈ 42.9 µM) and an MIC (Acinetobacter baumannii; strain ATCC 19606) of over 64 µg/mL. For the same molecule, the MIC (Shigella flexneri) was 2 µg/mL (≈ 1.34 µM), the MIC (Morganella morganii; strain ATCC 25830) was 32 µg/mL (≈ 21.4 µM) and the MIC (Morganella morganii; strain CRE1001) was 32 µg/mL (≈ 21.4 µM). It also gave an MIC (Salmonella typhimurium) of 8 µg/mL (≈ 5.36 µM), a ΔTm at 20 µM (BAM complex) of 3.8 °C and an MIC (Bacillus cereus) of over 64 µg/mL. For the same molecule, the MIC (Bacillus subtilis) was over 64 µg/mL, the MIC (Staphylococcus aureus; strain ATCC 29737) was over 64 µg/mL and the MIC (Staphylococcus aureus; strain ATCC 43300) was over 64 µg/mL. It also gave a Tmax [1] of 2 h, a Cmax ([1]; SD) of 60.7 µg/mL and a half-life ([1]; SD) of 2.4 h. For the same molecule, the MIC (Enterobacter cloacae; strain CRE1010) was 4 µg/mL (≈ 2.68 µM), the MIC (Enterobacter cloacae; strain CRE1014) was 16 µg/mL (≈ 10.7 µM) and the MIC (Enterobacter cloacae; strain CRE1015) was 32 µg/mL (≈ 21.4 µM). For the same molecule, the MIC (Enterobacter cloacae; strain CRE1016) was 16 µg/mL (≈ 10.7 µM), the MIC (Enterobacter cloacae; strain CRE1017) was 32 µg/mL (≈ 21.4 µM) and the Kd ([2]; KD, steady state response, SPR, BamA-β, concentration range 0.019 µM to 20 µM) was about 800 nM. The koff ([2]; read-out: kd (dissociation rate)) was 0.0673 s⁻¹.
